Here are results for ten molecules from patent US20220324835A1 (Nurix Therapeutics, Inc., priority 2018, published 2022).

Test [1] has as its system T-cell. Briefly: IL-2 secretion from T-cells co-stimulated with anti-CD3 and anti-CD28 antibody (Biological Example 2). The settings on record: Homo sapiens, T-cell, fold change over baseline, primary human total T-cells, read-out: IL-2 secretion Anti-CD3/Anti-CD28 stimulation; for fold induction at 0.3 µM: 0.3 μM Cbl-b inhibitor; for fold induction at 1 µM: 1 μM Cbl-b inhibitor; for fold induction at 4 µM: 4 μM Cbl-b inhibitor. The format is cell-based, human. The essentials:
(§1)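 T-cells were stimulated with anti-CD3 antibody alone or with anti-CD28 antibody, in the presence or absence of Cbl-b inhibitor. IL-2 secretion or CD25 surface staining was measured, and values expressed as fold over the uninhibited baseline […].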

The subject of test [2] is T-cell. Briefly: CD25 cell surface staining on T-cells stimulated with anti-CD3 antibody alone (Biological Example 2). The following applies: T-cell, fold change over baseline, primary human total T-cells, read-out: CD25 staining Anti-CD3 stimulation; for fold induction at 1 µM: 1 μM Cbl-b inhibitor; for fold induction at 8 µM: 8 μM Cbl-b inhibitor. The format is cell-based, human.

Test [3] deals with T-cell. Briefly: CD25 cell surface staining on T-cells co-stimulated with anti-CD3 and anti-CD28 antibody (Biological Example 2). The format is cell-based, human. The following applies: Homo sapiens, T-cell, fold change over baseline, primary human total T-cells, read-out: CD25 staining Anti-CD3/Anti-CD28 stimulation; for fold induction at 0.3 µM: 0.3 μM Cbl-b inhibitor; for fold induction at 1 µM: 1 μM Cbl-b inhibitor; for fold induction at 4 µM: 4 μM Cbl-b inhibitor. The essentials:
as §1

Test [4] addresses T1, Cbl-b (Homo sapiens, UniProt Q13191). Briefly: Cbl-b activity assay (Cbl-b inhibition assay), TR-FRET of Cbl-b interaction with UbcH5B-Ub. The settings on record: assay buffer with 100 mM NaCl, 60 nM Src kinase; read-out: Cbl-b activity IC50. The format is biochemical. The method, boiled down:
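UbcH5B (C85K) conjugated to N-terminally Bodipy-Fluorescein-labeled ubiquitin served as the fluorescent partner. After compound preincubation, Src kinase (60 nM) with 1 mM ATP and 5 mM MgCl2 (final) was added for 1.5 h, followed by a further 1 h incubation. Some values were obtained with 50 mM NaCl and 30 nM Src.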
On the technique in general: Time-resolved FRET reads energy transfer from a long-lived donor to a nearby acceptor.

Test [5] has as its target T1, Cbl-b. The test can be described thus: Cbl-b inhibition assay (Cbl-b activity assay, FRET, Biological Example 1; 100 mM NaCl, 60 nM Src kinase). The format is biochemical. The settings on record: upper bound stated in text lists; read-out: IC50 values in the Cbl-b inhibition assay of Biological Example 1. The essentials: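 FRET read-out: loss of signal marks inhibition. Mix = biotin-Avi-Cbl-b (N-term), Src kinase, UbcH5B-Ub(Bodipy-FL, irreversible conjugate), streptavidin-Tb, assay buffer.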

In test [6] the test system is T-cell. The test can be described thus: IL-2 secretion from T-cells stimulated with anti-CD3 antibody alone (Biological Example 2). The settings on record: T-cell, fold change over baseline, primary human total T-cells, read-out: IL-2 secretion Anti-CD3 stimulation; for fold induction at 1 µM: 1 μM Cbl-b inhibitor; for fold induction at 8 µM: 8 μM Cbl-b inhibitor. The class given is cell-based, human.

T1 sequence (Q13191 36-427): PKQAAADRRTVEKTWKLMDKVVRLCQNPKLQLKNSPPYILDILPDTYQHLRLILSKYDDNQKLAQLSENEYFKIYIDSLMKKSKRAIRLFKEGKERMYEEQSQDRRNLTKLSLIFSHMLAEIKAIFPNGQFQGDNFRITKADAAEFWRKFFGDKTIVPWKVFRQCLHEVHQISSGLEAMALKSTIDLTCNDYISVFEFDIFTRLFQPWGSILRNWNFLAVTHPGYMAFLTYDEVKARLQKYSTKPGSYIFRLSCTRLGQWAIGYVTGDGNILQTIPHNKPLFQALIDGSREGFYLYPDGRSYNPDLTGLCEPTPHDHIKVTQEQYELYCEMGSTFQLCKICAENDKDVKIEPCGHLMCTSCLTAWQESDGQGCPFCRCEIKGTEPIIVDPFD

As to `C[C@H](Sc1nncn1C)c1cccc(NC(=O)c2cc(C3(O)COC3)cc(C(F)(F)F)n2)c1` [Compound 84, (S)-4-(3-hydroxyoxetan-3-yl)-N-(3-(1-((4-methyl-4H-1,2,4-triazol-3-yl)thio)ethyl)phenyl)-6-(trifluoromethyl)picolinamide], the fold induction at 0.3 µM with T-cell [1] and with T-cell [3] was < 1 each time. The fold induction at 1 µM with T-cell [1] was < 1; with T-cell [2], < 0.6; with T-cell [3], 1.01 to 1.3; in the test on T-cell [6], < 0.05. Also, the fold induction at 4 µM in the test with T-cell [1] was < 1; in the test on T-cell [3] it was 1.01 to 1.3. For the same molecule, the fold induction at 8 µM is 0.601 to 0.8 with T-cell [2] and < 0.05 in the test with T-cell [6]. Moreover, the IC50 on Cbl-b [4] was 0.301 to 1 µM; on Cbl-b [5], ≤ 1 µM.
On to `COc1cc(C(=O)Nc2cccc([C@H](C)Cc3nncn3C)c2)nc(C(F)(F)F)c1` [Compound 192, (R)-4-methoxy-N-(3-(1-(4-methyl-4H-1,2,4-triazol-3-yl)propan-2-yl)phenyl)-6-(trifluoromethyl)picolinamide], for which the fold induction at 0.3 µM with T-cell [1] lay in the range of 1.01 to 2.5; with T-cell [3] it was 1.01 to 1.3. Moreover, the fold induction at 1 µM in the test on T-cell [1] was 1.01 to 2.5; with T-cell [2], 0.801 to 1; in the test on T-cell [3], 1.01 to 1.3; with T-cell [6], 0.101 to 0.15. In addition, the fold induction at 4 µM lay within 1.01 to 2.5 in the test on T-cell [1] and 1.01 to 1.3 in the test on T-cell [3]. The fold induction at 8 µM lay within 0.801 to 1 in the test with T-cell [2] and 0.101 to 0.15 with T-cell [6]. Besides, the figures for the IC50 at Cbl-b [4] and at Cbl-b [5] were 0.301 to 1 µM and ≤ 1 µM, respectively.
Regarding `C[C@H](Cc1nncn1C)c1cccc(NC(=O)c2cc3cc(N4CCN(C)C(=O)C4)ccc3cn2)c1` [Compound 209, (R)-6-(4-methyl-3-oxopiperazin-1-yl)-N-(3-(1-(4-methyl-4H-1,2,4-triazol-3-yl)propan-2-yl)phenyl)isoquinoline-3-carboxamide 2,2,2-trifluoroacetate], the results for the fold induction at 0.3 µM in the test on T-cell [1] and with T-cell [3] were 5 to 7.5 and 1.31 to 1.5, respectively. Also, the fold induction at 1 µM in the test with T-cell [1] was 5 to 7.5; in the test on T-cell [2], < 0.6; in the test on T-cell [3], 1.31 to 1.5; with T-cell [6], > 0.201. Moreover, the fold induction at 4 µM is > 7.5 in the test on T-cell [1] and 1.51 to 1.75 in the test on T-cell [3]. The fold induction at 8 µM is > 1 in the test on T-cell [2] and > 0.201 with T-cell [6]. The IC50 at Cbl-b [4] is < 0.1 µM; at Cbl-b [5], ≤ 0.1 µM.
As to `Cc1ccc(C(=O)Nc2cccc(C(C)Cc3nccn3C)c2)nc1C1CC1` (stereo not drawn) [Compound 214, 6-Cyclopropyl-5-methyl-N-(3-(1-(1-methyl-1H-imidazol-2-yl)propan-2-yl)phenyl)picolinamide], the fold induction at 0.3 µM in the test with T-cell [1] is > 7.5; with T-cell [3], < 1. Further, the fold induction at 1 µM with T-cell [1] was > 7.5; in the test on T-cell [2], < 0.6; in the test on T-cell [3], < 1; with T-cell [6] it was 0.051 to 0.1. In addition, the fold induction at 4 µM in the test with T-cell [1] is > 7.5; with T-cell [3], 1.01 to 1.3. Further, the fold induction at 8 µM in the test with T-cell [2] is < 0.6; with T-cell [6], 0.051 to 0.1. For the same molecule, the IC50 at Cbl-b [4] is 1 to 3 µM; at Cbl-b [5], ≤ 10 µM.
Turning to `Cc1ccnn1CC(C)c1cccc(NC(=O)c2cccc(C(F)(F)F)n2)c1` (stereo not drawn) [Compound 215, N-[3-[1-methyl-2-(5-methylpyrazol-1-yl)ethyl]phenyl]-6-(trifluoromethyl)pyridine-2-carboxamide], the fold induction at 0.3 µM is < 1 with T-cell [1] and 1.51 to 1.75 with T-cell [3]. Further, the fold induction at 1 µM in the test with T-cell [1] was < 1; with T-cell [2], < 0.6; with T-cell [3], 1.31 to 1.5; in the test on T-cell [6], 0.051 to 0.1. Moreover, the fold induction at 4 µM fell in the range of 1.01 to 2.5 in the test on T-cell [1] and 1.51 to 1.75 in the test on T-cell [3]. Besides, the fold induction at 8 µM in the test on T-cell [2] was < 0.6; with T-cell [6] it was 0.051 to 0.1. For the same molecule, the IC50 was 0.301 to 1 µM on Cbl-b [4] and ≤ 1 µM at Cbl-b [5].
Consider `C[C@@H](Cc1nncn1C)c1cccc(NC(=O)c2cc(C(=O)N3CC[C@H](O)C3)cc(C3CC3)n2)c1` [Compound 221, 6-Cyclopropyl-4-[(3S)-3-hydroxypyrrolidine-1-carbonyl]-N-[3-[(1S)-1-methyl-2-(4-methyl-1,2,4-triazol-3-yl)ethyl]phenyl]pyridine-2-carboxamide], for which the fold induction at 0.3 µM in the test with T-cell [1] was < 1; with T-cell [3] it was 1.01 to 1.3. Further, the fold induction at 1 µM with T-cell [1] was < 1; in the test on T-cell [2], < 0.6; in the test on T-cell [3], 1.31 to 1.5; with T-cell [6], 0.051 to 0.1. For the same molecule, the values for the fold induction at 4 µM in the test on T-cell [1] and in the test with T-cell [3] were < 1 and 1.31 to 1.5, respectively. Further, the fold induction at 8 µM in the test on T-cell [2] was < 0.6; in the test with T-cell [6], 0.051 to 0.1. Moreover, the values for the IC50 at Cbl-b [4] and on Cbl-b [5] were 0.301 to 1 µM and ≤ 1 µM, respectively.
On to `C[C@H](Cc1nncn1C)c1cccc(N2Cc3c(cc(C4CC4)cc3C(F)(F)F)C2=O)c1` [Compound 260, (R)-6-cyclopropyl-2-(3-(1-(4-methyl-4H-1,2,4-triazol-3-yl)propan-2-yl)phenyl)-4-(trifluoromethyl)isoindolin-1-one], for which the values for the fold induction at 0.3 µM in the test on T-cell [1] and in the test with T-cell [3] were 1.01 to 2.5 and 1.01 to 1.3, respectively. The fold induction at 1 µM in the test on T-cell [1] was 1.01 to 2.5; in the test on T-cell [2], 0.801 to 1; in the test on T-cell [3] it was 1.01 to 1.3; in the test with T-cell [6], > 0.201. Moreover, the fold induction at 4 µM fell in the range of 2.51 to 5 in the test with T-cell [1] and 1.31 to 1.5 in the test on T-cell [3]. In addition, the fold induction at 8 µM in the test on T-cell [2] is > 1; with T-cell [6], > 0.201. Further, the figures for the IC50 at Cbl-b [4] and at Cbl-b [5] were < 0.1 µM and ≤ 0.1 µM, respectively.
For `Cc1conc1CC(C)c1cccc(N2Cc3c(cccc3C(F)(F)F)C2=O)c1` (stereo not drawn) [Compound 268, 2-(3-(1-(4-methylisoxazol-3-yl)propan-2-yl)phenyl)-4-(trifluoromethyl)isoindolin-1-one], the fold induction at 0.3 µM was in the range of 1.01 to 2.5 with T-cell [1] and 1.01 to 1.3 with T-cell [3]. Also, the fold induction at 1 µM is 1.01 to 2.5 with T-cell [1], 0.601 to 0.8 in the test on T-cell [2], 1.01 to 1.3 in the test on T-cell [3] and < 0.05 in the test with T-cell [6]. In addition, the fold induction at 4 µM was 1.01 to 2.5 with T-cell [1] and 1.01 to 1.3 with T-cell [3]. Also, the fold induction at 8 µM in the test with T-cell [2] fell in the range of 0.801 to 1; in the test with T-cell [6], 0.051 to 0.1. For the same molecule, the IC50 on Cbl-b [4] is 0.301 to 1 µM; at Cbl-b [5] it was ≤ 0.5 µM.
In the case of `C[C@H](Cc1nncn1C)c1cccc(N2Cc3c(cc(C(=O)N4CC(O)C4)cc3C3CC3)C2=O)c1` [Compound 278, (R)-4-cyclopropyl-6-(3-hydroxyazetidine-1-carbonyl)-2-(3-(1-(4-methyl-4H-1,2,4-triazol-3-yl)propan-2-yl)phenyl)isoindolin-1-one], the fold induction at 0.3 µM in the test on T-cell [1] is 1.01 to 2.5; with T-cell [3], 1.01 to 1.3. In addition, the fold induction at 1 µM fell in the range of 1.01 to 2.5 in the test with T-cell [1], 0.801 to 1 in the test with T-cell [2], 1.01 to 1.3 in the test on T-cell [3] and 0.151 to 0.2 with T-cell [6]. The values for the fold induction at 4 µM in the test on T-cell [1] and in the test with T-cell [3] were 2.51 to 5 and 1.01 to 1.3, respectively. In addition, the fold induction at 8 µM in the test on T-cell [2] is > 1; in the test on T-cell [6], > 0.201. Also, the IC50 on Cbl-b [4] was < 0.1 µM; on Cbl-b [5], ≤ 0.1 µM.
On to `C[C@H](Cc1nncn1C)c1cccc(N2Cc3c(cc(-c4ccn[nH]4)cc3C(F)(F)F)C2=O)c1` [Compound 279, (R)-2-(3-(1-(4-methyl-4H-1,2,4-triazol-3-yl)propan-2-yl)phenyl)-6-(1H-pyrazol-5-yl)-4-(trifluoromethyl)isoindolin-1-one], for which the fold induction at 0.3 µM with T-cell [1] was 2.51 to 5; in the test with T-cell [3] it was 1.01 to 1.3. In addition, the fold induction at 1 µM is 5 to 7.5 in the test on T-cell [1], > 1 with T-cell [2], 1.31 to 1.5 with T-cell [3] and > 0.201 in the test on T-cell [6]. Besides, the fold induction at 4 µM is > 7.5 with T-cell [1] and 1.31 to 1.5 in the test on T-cell [3]. Also, the fold induction at 8 µM in the test with T-cell [2] was > 1; in the test on T-cell [6] it was > 0.201. For the same molecule, the IC50 was < 0.1 µM at Cbl-b [4] and ≤ 0.1 µM at Cbl-b [5].

By IC50 is commonly meant the midpoint of a concentration-inhibition curve.
